Experimental data as given in patent publication US12054562B2, “Cell-permeable inhibitory agent and methods of use thereof in treatment of cognitive and mood disorders” (priority 2015, dated 2024).

How the values were obtained:
[1] = molecular target: T1, α1 subunit containing GABAA receptors (Mus musculus, UniProt P62812); assay: Co-IP and WB, gephyrin and α1 subunit containing GABAA receptors; assay type: binding; conditions: immunoprecipitates from Example 1, hippocampal tissue
T1 construct: α1 and α2 subunit containing GABAA receptors in the hippocampal tissue; from tissue; host or cells: hippocampus of adult mice
T1 sequence (P62812 28-455): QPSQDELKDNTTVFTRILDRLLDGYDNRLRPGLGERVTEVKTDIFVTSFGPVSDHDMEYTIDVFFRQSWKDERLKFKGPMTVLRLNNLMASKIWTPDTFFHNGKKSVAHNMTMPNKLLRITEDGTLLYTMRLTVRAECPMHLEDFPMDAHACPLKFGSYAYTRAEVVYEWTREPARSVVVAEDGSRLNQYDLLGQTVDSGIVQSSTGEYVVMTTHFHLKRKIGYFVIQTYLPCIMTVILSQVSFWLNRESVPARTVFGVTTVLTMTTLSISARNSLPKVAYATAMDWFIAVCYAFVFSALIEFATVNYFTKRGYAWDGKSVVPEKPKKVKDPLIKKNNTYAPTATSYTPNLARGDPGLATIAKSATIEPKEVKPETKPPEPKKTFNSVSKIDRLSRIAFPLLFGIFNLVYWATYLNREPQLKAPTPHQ

α5GABAA receptors = assay: Surface biotinylation assay of α5 subunit in ex vivo brain slices after i.p. peptide; design: species or system mouse; conditions: peptide 20 mg/kg, etomidate-treated adult male mice
Method: We next asked whether injection of inhibitory peptide, when administered to mice in vivo by I.P. injection, reduced the level of α5GABAA receptors expressed in the hippocampus. To test whether the peptide reduces α5GABAA receptor cell-surface expression in vivo, we took advantage of a mouse model that we developed recently (Zurek, et al., 2014), in which up-regulation of α5GABAA receptor cell surface expression causes memory deficits. Adult mice (22-25 g) were treated with etomidate (8 mg/kg, i.p.), and sacrificed 24 hrs later according to a protocol approved by the Animal Care Committee of the University of Toronto. The hippocampi were collected and subject to experiments. We first measured the level of radixin phosphorylation, because radixin phosphorylation is required for the recruitment of α5GABAA receptors to extrasynaptic sites of the neurons (Loebrich et al., 2006; Hausrat et al., 2015). The antibody against threonine at 564 of radixin, which is specific for radixin phosphorylation involving α5GABAA receptor extra-synaptic trafficking, was used for these studies (Choii et al., 2015; Hausrat et al., 2015). […] We next examined whether the inhibitory peptide prevented α5GABAA receptor from trafficking to surface membrane in vivo by studying ex vivo brain slices. […]

[2] = tested on: etomidate-induced memory deficits in mice; assay: Novel object recognition task, prevention paradigm; assay type: in vivo, mouse; conditions: Etom 8 mg/kg plus α5 peptide 20 mg/kg i.p., NOR next day
Description: The novel object recognition task involves the presentation of two identical objects for visual inspection (in the case of humans and non-human primates) and exploration in the case of rodents. After a delay, one of the original objects is presented together with a new (novel) object. Humans and animals normally spend time more time looking at (or in the case of mice, exploring) the novel object. Indeed, the test relies on the innate preference of humans and animals for novelty. The inspection or interaction time differs only if the familiar object is recognized. Otherwise, the subject spends an equal amount of time inspecting both objects. […]
In the present study, mice were handled two times a day, 5 min each before start of behavioral experiments. Object recognition was assessed in a circle opaque chamber with the diameter of 38.5 cm in a regular lit room. […] Movement and interaction with the objects was recorded with a video camera that was mounted above the chamber. The exploratory behavior and mouse activity was analyzed blindly by a person with a good training and the software EthoVision, XT v11.5 provided by the Noldus Information Tech Inc., (Leesburg VA, USA). […] Memory was assessed by measuring the novelty preference ratio (i.e., the ratio of time spent exploring the novel object to the time spent exploring both objects). […]

[3] = tested on: etomidate-induced memory deficits in mice; assay: Novel object recognition task, treatment paradigm; assay type: in vivo, mouse; conditions: peptide given the day after etomidate, 4 hrs before behavioral testing
Method: In the present study, mice were handled two times a day, 5 min each before start of behavioral experiments. Object recognition was assessed in a circle opaque chamber with the diameter of 38.5 cm in a regular lit room. Each mouse was habituated to the chamber for 5 min since day 3. During the training phase, the mouse was allowed to explore two identical objects for 5 min. The mouse was then returned to its home cage for a retention period of 1 h. The mouse was reintroduced to the training context and presented with one familiar object and one novel object for 5 min. Movement and interaction with the objects was recorded with a video camera that was mounted above the chamber. The exploratory behavior and mouse activity was analyzed blindly by a person with a good training and the software EthoVision, XT v11.5 provided by the Noldus Information Tech Inc., (Leesburg VA, USA). Exploratory behavior was defined as sniffing, licking, or touching the object while facing the object. Memory was assessed by measuring the novelty preference ratio (i.e., the ratio of time spent exploring the novel object to the time spent exploring both objects). […] Total interaction time with both objects was compared between groups to determine whether the treatments affected locomotor activity or exploration during the testing phase. […]

mice = conditions: mouse, in vivo
Method: In the present study, mice were handled two times a day, 5 min each before start of behavioral experiments. Object recognition was assessed in a circle opaque chamber with the diameter of 38.5 cm in a regular lit room. Each mouse was habituated to the chamber for 5 min since day 3. During the training phase, the mouse was allowed to explore two identical objects for 5 min. The mouse was then returned to its home cage for a retention period of 1 h. The mouse was reintroduced to the training context and presented with one familiar object and one novel object for 5 min. Movement and interaction with the objects was recorded with a video camera that was mounted above the chamber. The exploratory behavior and mouse activity was analyzed blindly by a person with a good training and the software EthoVision, XT v11.5 provided by the Noldus Information Tech Inc., (Leesburg VA, USA). Exploratory behavior was defined as sniffing, licking, or touching the object while facing the object. Memory was assessed by measuring the novelty preference ratio (i.e., the ratio of time spent exploring the novel object to the time spent exploring both objects). […] Total interaction time with both objects was compared between groups to determine whether the treatments affected locomotor activity or exploration during the testing phase.
Specifically, we studied whether the use of the inhibitory peptide with etomidate prevented etomidate-induced memory deficits (attributed to the increase in cell surface expression of α5GABAA receptors). […] Saline and 35% propylene glycol were used as the vehicle control. NOR was conducted the next day.

[4] = tested on: α5GABAA receptor cell-surface expression; assay: Receptor cell-surface ELISA assay in cultured hippocampal neurons; assay type: cell-based, mouse; conditions: neurons treated with peptide without exposure to etomidate

NYFTKRGWAWDGKKAL [inhibitory peptide]
effects on α1 subunit containing GABAA receptors (gephyrin interaction) [1]: did not have any effects
expression of α5GABAA receptors on the cell surface (α5GABAA receptors): selectively prevented
α5GABAA total protein production (α5GABAA receptors): did not change
etomidate-induced memory deficits (NOR, prevention) [2]: could prevent
memory deficits in etomidate-treated mice (NOR, treatment) [3]: reversed
Body Angle State Bent (mice): 6 ± 3 s
Body Angle State Bent (%) (mice): 2%
Body Angle State Straight (mice): 269 ± 45 s
Body Angle State Straight (%) (mice): 98%
Body Elongation State Contracted (mice): 48 ± 66 s
Body Elongation State Contracted (%) (mice): 16%
Body Elongation State Normal (mice): 252 ± 66 s
Body Elongation State Normal (%) (mice): 84%
Body Elongation State Stretched (mice): 0 s
Rotation Frequency (mice): 5.5 ± 1.7
baseline α5GABAA receptors expression, total or cell surface level [4]: does not alter
